Results taken from the NIST ThermoML archive (doi:10.1016/j.jct.2011.01.008).

What was measured:
[1] = refractive index (Na D-line) (dimensionless); xn = mol fraction of the nth substance listed; conditions: 298.15 K, 96 kPa, Liquid, Standard Abbe refractometry
[2] = xn = mol fraction of the nth substance listed; conditions: 96 kPa, Liquid, Vibrating tube method

CCCCC=O [pentanal] + CCOS(=O)(=O)[O-].CCn1cc[n+](C)c1
[1]
Conditions | refractive index
x1 = 0.0792 | 1.4793
x1 = 0.101 | 1.4788
x1 = 0.2039 | 1.4759
x1 = 0.3008 | 1.4718
x1 = 0.4074 | 1.4672
x1 = 0.5048 | 1.4621
x1 = 0.6047 | 1.4554
x1 = 0.7012 | 1.4486
x1 = 0.8024 | 1.4403
x1 = 0.897 | 1.431
x1 = 0.9513 | 1.4231
x1 = 1 | 1.396

[2]
Conditions | mass density [kg/m3]
288.15 K, x1 = 0.0792 | 1218.05
288.15 K, x1 = 0.101 | 1213.67
288.15 K, x1 = 0.3008 | 1168.57
288.15 K, x1 = 0.4074 | 1139.93
288.15 K, x1 = 0.6047 | 1073.97
288.15 K, x1 = 0.7012 | 1036.82
288.15 K, x1 = 0.897 | 935.22
288.15 K, x1 = 0.9513 | 896.87
288.15 K, x1 = 1 | 814.15
288.16 K, x1 = 0.2039 | 1191.69
288.16 K, x1 = 0.5048 | 1109.32
288.16 K, x1 = 0.8024 | 990.74
293.14 K, x1 = 0.0792 | 1215
293.14 K, x1 = 1 | 809.45
293.15 K, x1 = 0.101 | 1210.75
293.15 K, x1 = 0.2039 | 1188.69
293.15 K, x1 = 0.3008 | 1165.47
293.15 K, x1 = 0.4074 | 1136.9
293.15 K, x1 = 0.5048 | 1106.25
293.15 K, x1 = 0.6047 | 1070.53
293.15 K, x1 = 0.7012 | 1033.26
293.15 K, x1 = 0.8024 | 986.74
293.15 K, x1 = 0.897 | 931.08
293.15 K, x1 = 0.9513 | 892.5
298.14 K, x1 = 0.0792 | 1211.93
298.14 K, x1 = 0.101 | 1207.59
298.14 K, x1 = 0.2039 | 1185.49
298.14 K, x1 = 0.3008 | 1162.15
298.14 K, x1 = 0.4074 | 1133.5
298.14 K, x1 = 0.5048 | 1102.7
298.14 K, x1 = 0.6047 | 1066.69
298.14 K, x1 = 0.7012 | 1029.35
298.14 K, x1 = 0.8024 | 982.52
298.14 K, x1 = 0.897 | 926.62
298.14 K, x1 = 0.9513 | 887.82
298.14 K, x1 = 1 | 804.73
303.14 K, x1 = 0.101 | 1204.47
303.14 K, x1 = 0.2039 | 1182.28
303.14 K, x1 = 0.3008 | 1158.83
303.14 K, x1 = 0.4074 | 1130.07
303.14 K, x1 = 0.5048 | 1099.13
303.14 K, x1 = 0.6047 | 1062.78
303.14 K, x1 = 0.7012 | 1025.33
303.14 K, x1 = 0.8024 | 978.11
303.14 K, x1 = 0.897 | 921.84
303.14 K, x1 = 0.9513 | 882.85
303.15 K, x1 = 0.0792 | 1208.72
303.15 K, x1 = 1 | 799.97
308.14 K, x1 = 0.101 | 1201.4
308.14 K, x1 = 0.2039 | 1179.03
308.14 K, x1 = 0.4074 | 1126.55
308.14 K, x1 = 0.5048 | 1095.35
308.14 K, x1 = 0.6047 | 1058.77
308.14 K, x1 = 0.7012 | 1021.17
308.14 K, x1 = 0.897 | 916.87
308.14 K, x1 = 0.9513 | 877.74
308.15 K, x1 = 0.0792 | 1205.39
308.15 K, x1 = 0.3008 | 1155.36
308.15 K, x1 = 0.8024 | 973.48
308.15 K, x1 = 1 | 795.17
313.14 K, x1 = 0.0792 | 1201.93
313.14 K, x1 = 0.2039 | 1175.7
313.14 K, x1 = 0.4074 | 1122.78
313.14 K, x1 = 0.5048 | 1091.33
313.14 K, x1 = 0.6047 | 1054.63
313.14 K, x1 = 0.7012 | 1016.96
313.14 K, x1 = 0.897 | 911.86
313.14 K, x1 = 0.9513 | 872.76
313.14 K, x1 = 1 | 790.33
313.15 K, x1 = 0.101 | 1198.11
313.15 K, x1 = 0.3008 | 1151.83
313.15 K, x1 = 0.8024 | 966.65
318.14 K, x1 = 0.0792 | 1198.39
318.14 K, x1 = 0.2039 | 1172.28
318.14 K, x1 = 0.5048 | 1087.33
318.14 K, x1 = 0.6047 | 1050.4
318.14 K, x1 = 0.7012 | 1012.64
318.14 K, x1 = 0.8024 | 962.44
318.14 K, x1 = 0.897 | 906.82
318.14 K, x1 = 0.9513 | 867.68
318.14 K, x1 = 1 | 785.46
318.15 K, x1 = 0.101 | 1194.8
318.15 K, x1 = 0.3008 | 1148.23
318.15 K, x1 = 0.4074 | 1119.06
323.14 K, x1 = 0.0792 | 1195.73
323.14 K, x1 = 0.2039 | 1168.79
323.14 K, x1 = 0.5048 | 1083.27
323.14 K, x1 = 0.6047 | 1046.09
323.14 K, x1 = 0.8024 | 959.29
323.14 K, x1 = 0.9513 | 862.54
323.14 K, x1 = 1 | 780.55
323.15 K, x1 = 0.101 | 1191.43
323.15 K, x1 = 0.3008 | 1144.59
323.15 K, x1 = 0.4074 | 1115.15
323.15 K, x1 = 0.7012 | 1008.39
323.15 K, x1 = 0.897 | 901.88

CCC=O [propanal] + CCOS(=O)(=O)[O-].CCn1cc[n+](C)c1
[1]
Conditions | refractive index
x1 = 0.077 | 1.4789
x1 = 0.1702 | 1.4768
x1 = 0.2146 | 1.473
x1 = 0.3671 | 1.4641
x1 = 0.4184 | 1.4627
x1 = 0.5246 | 1.4532
x1 = 0.616 | 1.4467
x1 = 0.7074 | 1.4369
x1 = 0.8104 | 1.426
x1 = 0.9022 | 1.41
x1 = 0.9521 | 1.3854
x1 = 1 | 1.3648

[2]
Conditions | mass density [kg/m3]
288.14 K, x1 = 0.1702 | 1215.95
288.14 K, x1 = 0.4184 | 1170.49
288.14 K, x1 = 1 | 807.26
288.15 K, x1 = 0.2146 | 1209
288.15 K, x1 = 0.3671 | 1182.78
288.15 K, x1 = 0.5246 | 1139.5
288.15 K, x1 = 0.616 | 1108.79
288.15 K, x1 = 0.7074 | 1069.7
288.15 K, x1 = 0.8104 | 1012.95
288.15 K, x1 = 0.9022 | 936.46
288.15 K, x1 = 0.9521 | 876.3
288.16 K, x1 = 0.077 | 1227.88
293.15 K, x1 = 0.077 | 1224.4
293.15 K, x1 = 0.1702 | 1212.43
293.15 K, x1 = 0.5246 | 1136.2
293.15 K, x1 = 0.616 | 1105.04
293.15 K, x1 = 0.7074 | 1066.43
293.15 K, x1 = 1 | 801.06
293.16 K, x1 = 0.2146 | 1205.39
293.16 K, x1 = 0.3671 | 1178.94
293.16 K, x1 = 0.4184 | 1166.66
293.16 K, x1 = 0.8104 | 1008.26
293.16 K, x1 = 0.9022 | 931.16
293.16 K, x1 = 0.9521 | 870.71
298.15 K, x1 = 0.1702 | 1208.92
298.15 K, x1 = 0.5246 | 1132.3
298.15 K, x1 = 0.616 | 1101.02
298.15 K, x1 = 1 | 794.85
298.16 K, x1 = 0.077 | 1220.94
298.16 K, x1 = 0.2146 | 1201.81
298.16 K, x1 = 0.3671 | 1175.21
298.16 K, x1 = 0.4184 | 1162.88
298.16 K, x1 = 0.7074 | 1062.18
298.16 K, x1 = 0.8104 | 1003.73
298.16 K, x1 = 0.9022 | 925.91
298.16 K, x1 = 0.9521 | 865.19
303.15 K, x1 = 0.077 | 1217.48
303.15 K, x1 = 0.5246 | 1128.46
303.15 K, x1 = 0.7074 | 1058.06
303.15 K, x1 = 1 | 788.72
303.16 K, x1 = 0.1702 | 1205.39
303.16 K, x1 = 0.2146 | 1198.24
303.16 K, x1 = 0.3671 | 1171.5
303.16 K, x1 = 0.4184 | 1159.08
303.16 K, x1 = 0.616 | 1097.06
303.16 K, x1 = 0.8104 | 999.38
303.16 K, x1 = 0.9022 | 920.77
303.16 K, x1 = 0.9521 | 859.8
308.15 K, x1 = 0.077 | 1214.04
308.15 K, x1 = 0.2146 | 1194.69
308.15 K, x1 = 0.3671 | 1167.83
308.15 K, x1 = 0.4184 | 1155.38
308.15 K, x1 = 0.8104 | 995.49
308.15 K, x1 = 0.9022 | 915.5
308.15 K, x1 = 0.9521 | 854.41
308.16 K, x1 = 0.1702 | 1201.91
308.16 K, x1 = 0.5246 | 1124.75
308.16 K, x1 = 0.616 | 1093.39
308.16 K, x1 = 0.7074 | 1054.45
308.16 K, x1 = 1 | 782.55
313.14 K, x1 = 0.1702 | 1198.61
313.14 K, x1 = 0.616 | 1089.32
313.14 K, x1 = 0.7074 | 1050.7
313.15 K, x1 = 0.077 | 1210.68
313.15 K, x1 = 0.3671 | 1164.21
313.15 K, x1 = 0.4184 | 1151.8
313.15 K, x1 = 0.5246 | 1121.2
313.15 K, x1 = 0.8104 | 990.4
313.15 K, x1 = 0.9022 | 910.11
313.15 K, x1 = 0.9521 | 848.67
313.15 K, x1 = 1 | 776.53
313.16 K, x1 = 0.2146 | 1191.34
